Laboratory results taken from patent publication US7871981B2, “Inhibition of cell motility, angiogenesis, and metastasis” (The United States of America as represented by the …, priority 1999, dated 2011).

Experiments:
MDCK cells = assay: Extracellular matrix invasion assay, MDCK cells in collagen gels; assay type: cell-based, canine; conditions: peptide 100 nM
Method: MDCK cell invasion into three-dimensional collagen gels was analyzed as previously described. Briefly, type I collagen (1.5 mg/ml; Cohesion Technologies) was mixed with 10×MEM and sodium bicarbonate (11.76 mg/ml) at a ratio of 8:1:1 (vol:vol:vol) on ice, and 0.4 ml aliquots were dispensed into 16-mm tissue culture wells (Nunc), and allowed to gel at 37° C. for 20 min. Cells were seeded onto gels (1×10^4 cells/well) in 0.4 ml of growth medium containing HGF and/or peptides 1 or 4 as indicated. After 5 days, cells were fixed in situ in 2.5% glutaraldehyde in 0.1 M sodium cacodylate buffer (pH 7.4), and cells that had invaded the gel below the surface monolayer in ten randomly selected fields (1×1.4 mm) were counted microscopically using a 20× phase contrast objective. Depth of cellular invasion into the collagen gel was quantitated in the same ten fields per treatment group using a calibrated fine focusing micrometer. Values were compared using the Student's unpaired t-test and a significant value was taken as P<0.001. Results in Table 1 are shown as the mean number of invading cells/field or mean invasion depth/cell in microns+standard error of the mean.
MDCK cells were left untreated (Control), treated with HGF (10 ng/ml), or HGF+peptide 2 or 4 (100 nM), and invasion into collagen matrices was quantitated microscopically as described above. Values are the mean of at least 10 randomly selected fields±standard error of the mean. Epithelial Tube Formation Assay

TAC-2 cells = assay: Epithelial tube formation assay, TAC-2 cells in collagen gels; assay type: cell-based; conditions: for HGF-induced elongation of epithelial tubes (cord length): HGF 20 ng/ml, 3 days; for concentration at which a sub-maximal inhibitory effect is already observed: HGF-induced tube elongation
Method: TAC-2 cells were suspended in three-dimensional collagen gels at 1×10^4 cells/ml in collagen and incubated in complete medium containing HGF and/or Grb2 inhibitors as indicated. After 3 days, the cultures were fixed with 2.5% glutaraldehyde in 0.1 M cacodylate buffer, and at least 3 randomly selected fields per experimental condition in each of 3 separate experiments were digitally recorded with brightfield microscopy. The total length of the cords in each individual colony present in each optical field was measured with IPLab. Cord length was considered as “0” in: a) colonies with a spheroidal shape, and b) slightly elongated structures in which the length to diameter ratio was less than 2. The mean values for each experimental condition were compared to controls using the Student's unpaired t-test. Results in FIG. 5 are described as mean total cord length (in μm) per field.

HUVE cells [1] = assay: HUVE cell migration, modified Boyden chamber; assay type: cell-based, human
Method: (§1) The migration assay of HUVE and HMEC-1 cells in modified Boyden chambers was adapted from previously described procedures (Murohara et al., Thromb. Vasc. Biol., 19: 1156-61 (1999), Malinda et al., FASEB J., 13: 53-62 (1999)). In brief, Biocoat Cell Environment control inserts (8 micron pore size; Becton Dickinson) were coated with 0.1% gelatin (Sigma) for at least 1 hour at 37° C. and air dried. Lower chambers contained 0.7 ml RPMI+0.1% BSA, to which 20 ng/ml HGF and/or 300 nM Grb2 inhibitors were added. Cells were pre-treated with the indicated concentrations of Grb2 inhibitors for 18-24 hours, trypsinized, washed twice in RPMI+0.1% BSA, added to upper chambers (5×10^4 cells/well) with or without inhibitors in a final volume of 0.5 ml, and incubated for 4 h at 37° C. Cells on the upper surface of each filter were removed with a cotton swab, while cells that had traversed to the bottom surface of the filter were fixed and stained using Diff-Quik (Dade Diagnostics) and counted using a 10× objective. Mean values from 4 randomly selected fields (1×1.4 mm) were calculated for each of triplicate wells per experimental condition. Shown in FIG. 6 is the ratio of growth factor-treated to control migrating cells designated on the y-axis as “Migration (Fold Increase)” or as the mean number of cells per optical field in FIGS. 8-11.

HMEC-1 cells [2] = assay: Endothelial cell tubulogenesis assay on collagen (HMEC-1 collagen invasion); assay type: cell-based, human
Method: HMEC-1 cell tubulogenesis assay on collagen gels was adapted from a previously described procedure (Montesano et al., Cell, 42: 469-77 (1985), Pepper et al., Exp. Cell Res., 204: 356-63 (1993)). Cells were seeded onto collagen gels cast in 16-mm wells (2.5×10^4 cells/well) and grown to confluence in reduced growth medium (5% FCS and 150 μg/ml ECGS). At confluence cells were pre-treated with or without Grb2 inhibitors for 24 hours, after which time medium was replaced by fresh medium supplemented with or without the indicated concentration of inhibitors and/or 20 ng/ml HGF. Medium and compounds were changed every day. After 24 hours, the cultures were fixed in situ, and 5 randomly selected optical fields per experimental condition in each of three separate experiments were digitally recorded under phase contrast microscopy using a 20× phase contrast objective, by focusing 20 μm beneath the surface of the gel. Invasion was quantitated using IPLab software (Scanalytics, Fairfax, Va.) by measuring the total length of all cellular structures that had penetrated beneath the surface monolayer either as apparently single cells or in the form of cell cords. Values were compared using Student's unpaired t-test and a significant value was taken at P<0.001. Results set forth in FIG. 7 are the mean total length (in μm) per field.

HMEC-1 cells [3] = assay: HMEC-1 cell migration, modified Boyden chamber; assay type: cell-based, human
Method: as §1

HUVECs = assay: HUVE cell tubulogenesis assay on Matrigel; assay type: cell-based, human
Method: The HUVE tube formation assay was performed as previously described (Grant et al., J. Cell. Physiol., 153: 614-625 (1992)). Briefly, 96-well plates were coated with 90 μl of Matrigel (10 mg/ml) (Collaborative Research) (Baatout, supra) and incubated at 37° C. for 30 min to promote gelling. 10,000 HUVECs were resuspended in reduced growth medium (serum concentration 10% and 5 U/ml heparin) and added to each well with the indicated reagents in a final volume of 100 μl. After 18 h, the plates were fixed with Diff-Quik, and at least 4 randomly selected fields per experimental conditions were digitally recorded under bright field illumination using a 10× objective. The mean additive length of the cords present in each optical field was measured using IPLab and compared to controls using the Student's unpaired t-test.

HUVE cells [4] = assay: HUVE cell proliferation; assay type: cell-based, human; conditions: growth factor alone: HGF 25 ng/ml, VEGF 10 ng/ml, bFGF 5 ng/ml
Method: HUVE or HMVE cells were seeded per triplicate in type I collagen-coated 48-well plates (Biocoat) (3000 cells/well) in […] of complete EGM-Bullet Kit medium (BioWhittaker, Walkersville, Md.), allowed to attach for 4 hr and incubated overnight with or without the indicated concentrations of peptide 2. The cultures were rinsed twice in serum-free medium and incubated with EBM medium (BioWhittaker) supplemented with 50 μg/ml heparin, 50 μg/ml ascorbic acid and 10% FCS. After either 4 days (HUVE) or 5 days (HMVE), cells were harvested with trypsin/EDTA and counted with an hemocytometer. The mean number of cells per ml was calculated from 3 independent measures for each of triplicate wells per experimental condition and compared to controls using the Student's unpaired t-test. Results set forth in FIG. 12 are described as the ratio of growth factor-treated to control proliferating cells designated on the y-axis as “Proliferation (Fold Increase)”.

NIH 3T3 fibroblasts = assay: NIH 3T3 fibroblast migration, modified Boyden chamber; assay type: cell-based; conditions: PDGF-BB 50 ng/ml alone
Method: as §1
PDGF is implicated in different biological processes such vascular remodeling, wound healing and cancer (for reviews, see Bornfeldt et al., Ann N Y Acad. Sci., 766:416-30, 1995; Gendron, Surv. Ophthalmol., 44:184-5, 1999). Addition of 50 ng/ml PDGF-BB to NIH 3T3 fibroblasts incubated in a modified Boyden chamber results in a dramatic, 20-fold increase in cell migration. […] This observation opens a potential therapeutical use of the Grb2 inhibitor compounds in the treatment of diseases such as cancer, wound healing disorders, vascular complications of diabetes mellitus, vascular nephropathies, and diseases with occurrence of fibrosis.

[5] = peptide 300 nM, no growth factor

CC(=O)N[C@@H](Cc1ccc(C(C(=O)O)C(=O)O)cc1)C(=O)NC1(C(=O)N[C@@H](CC(N)=O)C(=O)NCCCc2cccc3ccccc23)CCCCC1 [peptide 3, (N-acetyl-4-malonyl)-Phe-Ac6c-Asn-NH-(3-naphthalen-1-yl-propyl)]
reduction of the mean depth of invasion per cell (MDCK cells; HGF-stimulated): at least 50% | reduction of the number of invading cells (MDCK cells; HGF-stimulated): at least 50% | HGF-induced elongation of epithelial tubes (cord length) (TAC-2 cells): significantly (p<0.0001) abrogate | concentration at which a sub-maximal inhibitory effect is already observed (TAC-2 cells): 30 nM

NC(=O)C[C@H](NC(=O)C1(NC(=O)[C@H](Cc2ccc(CP(=O)(O)O)cc2)NC(=O)C(=O)O)CCCCC1)C(=O)NCCCc1cccc2ccccc12 [peptide 1, oxalyl-Pmp-Ac6c-Asn-NH-(3-naphthalen-1-yl-propyl)]
bFGF-induced HUVEC migration (HUVE cells [1]; peptide 300 nM): complete blockade | HGF-induced increase on cell motility (HUVE cells [1]; peptide 300 nM, HGF 20 ng/ml): practically reverted to basal levels | basal levels of endothelial cell motility (HUVE cells [1]; [5]): did not significantly alter | collagen invasion induced by HGF (HMEC-1 cells [2]; peptide 30-300 nM, HGF 20 ng/ml): suppressed | HGF-induced increase on cell motility (HMEC-1 cells [3]; peptide 300 nM, HGF 20 ng/ml): practically reverted to basal levels | basal levels of endothelial cell motility (HMEC-1 cells [3]; [5]): did not significantly alter | mean length of the cords per optical field (HUVECs; HGF/NK1 300 ng/ml, peptide 1 μM, 18 h): 2502.8±108 μm | extent of cord formation (HUVECs; peptide 1 μM + HGF/NK1): markedly reduced the extent of cord formation | decrease in mean cord length vs HGF/NK1 alone (HUVECs; peptide 1 μM + HGF/NK1 300 ng/ml): 30% | HGF-induced elongation of epithelial tubes (cord length) (TAC-2 cells): significantly (p<0.0001) abrogate | concentration at which a sub-maximal inhibitory effect is already observed (TAC-2 cells): 30 nM | elongation and branching of duct-like structures (TAC-2 cells; co-addition with HGF 20 ng/ml): abrogated the elongation and branching of duct-like structures

HGF: hepatocyte growth factor, recombinant human
increase in the mean number of HUVE cells per ml (proliferation) (HUVE cells [4]): 2.3 fold | Mean Invading Cells/Field (MDCK cells; HGF 10 ng/ml, 5 days): 29.7 ± 2.6 | Mean Invasion Depth/Cell (MDCK cells; HGF 10 ng/ml, 5 days): 35.6 ± 2.7 μm | increase on cell motility induced by growth factor (HUVE cells [1]; HGF 20 ng/ml alone): 3.5 fold | increase in collagen invasion (HMEC-1 cells [2]; HGF 20 ng/ml alone): 6 fold | increase on cell motility induced by growth factor (HMEC-1 cells [3]; HGF 20 ng/ml alone): 5.5 fold

VEGF
increase in the mean number of HUVE cells per ml (proliferation) (HUVE cells [4]): 2 fold

bFGF: human recombinant basic fibroblast growth factor
increase in the mean number of HUVE cells per ml (proliferation) (HUVE cells [4]): 4.1 fold

CCCCCCCCCCCCCC(=O)O[C@@H]1[C@@H](C)[C@@]2(O)[C@@H](C=C(CO)C[C@]3(O)C(=O)C(C)=C[C@@H]23)[C@@H]2C(C)(C)[C@]12OC(C)=O [PMA, phorbol myristate acetate, reference compound]
increase of cell migration (HUVE cells [1]; PMA 40 ng/ml alone): 300%

B1: PDGF-BB: platelet-derived growth factor used to stimulate NIH 3T3 migration (protein, UniProt P01127 82-190, looked up)
Platelet-derived growth …: SLGSLTIAEPAMIAECKTRTEVFEISRRLIDRTNANFLVWPPCVEVQRCSGCCNNRNVQCRPTQVQLRPVQVRKIEIVRKKPIFKKATVTLEDHLACKCETVAAARPVT
modifications: homodimer
notes: platelet-derived growth factor used to stimulate NIH 3T3 migration
increase in cell migration (NIH 3T3 fibroblasts): 20 fold
